Data taken from patent US4761415A, “Dopamine-β-hydroxylase inhibitors” (SmithKline Beckman Corporation, priority 1986, dated 1988).
Where a name gives a salt, the structure may show the parent alone.

Key:
DBH = settings: cited from earlier work
[1] = Teresawa et al., Japan. Cir. J. 35, 339 (1971); cited from earlier work
[2] = test system: spontaneously hypertensive rats; assay: mean arterial blood pressure in spontaneously hypertensive rats; type: in vivo, rat; settings: 50 mg/kg intraperitoneally; for time to significant blood pressure reduction following treatment / blood pressure reduction (in words): compared to vehicle-treated controls; for blood pressure reduction (in words): within 30 minutes; for maximal blood pressure reduction: monitored for 260 minutes, indwelling cannulae in tail arteries
Method: Further, spontaneously hypertensive rats were treated with a suspension or solution of 3-mercapto-4-benzyl-5-[(4-methyl-piperazinyl)methyl]-1,2,4-triazole or 3-mercapto-4-(3-fluorobenzyl)-5[(4-methyl-1-piperazinyl)methyl]-1,2,4-triazole at a dose of 50 mg/kg intraperitoneally, and mean arterial blood pressure was monitored for 260 minutes using indwelling cannulae in the tail arteries. […] The maximal blood pressure reductions were approximately 25 and 40 mmHg, respectively, for each of the administered compounds.

[3] = biological target: T1, dopamine-β-hydroxylase (DBH) (Bos taurus, UniProt P15101); assay: biochemical; settings: molar concentration at which DBH activity was halved
T1 sequence (P15101 1-610): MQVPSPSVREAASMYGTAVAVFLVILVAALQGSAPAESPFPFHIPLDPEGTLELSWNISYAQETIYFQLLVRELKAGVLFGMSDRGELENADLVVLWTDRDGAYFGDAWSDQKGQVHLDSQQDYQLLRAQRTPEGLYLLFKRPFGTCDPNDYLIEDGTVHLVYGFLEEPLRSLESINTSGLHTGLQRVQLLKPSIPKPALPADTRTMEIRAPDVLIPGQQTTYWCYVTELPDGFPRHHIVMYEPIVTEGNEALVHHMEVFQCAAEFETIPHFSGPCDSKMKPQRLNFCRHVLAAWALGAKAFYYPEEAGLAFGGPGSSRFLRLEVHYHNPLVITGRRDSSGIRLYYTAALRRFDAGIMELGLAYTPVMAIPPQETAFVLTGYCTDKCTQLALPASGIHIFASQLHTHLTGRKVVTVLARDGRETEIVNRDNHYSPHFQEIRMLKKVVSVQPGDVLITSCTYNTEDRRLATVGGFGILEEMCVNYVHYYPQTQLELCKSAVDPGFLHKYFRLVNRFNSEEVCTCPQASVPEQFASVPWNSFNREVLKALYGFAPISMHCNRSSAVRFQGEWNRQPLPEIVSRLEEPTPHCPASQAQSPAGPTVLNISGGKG
Method: J. J. Pisano, et al., Biochim. Biophys. Acta, 43, 566-568 (1960). Octopamine was assayed following sodium periodate oxidation to p-hydroxybenzaldehyde by measuring spectrophotometric absorbance at 330 nm.

[4] = inhibition of cytochrome P450-dependent mixed function oxidase catalyzed deethylation of ethoxycoumarin; type: in vitro ADME; settings: read-out: P-450 IC50
Method: The compounds listed in Table I also were evaluated for their ability to inhibit cytochrome P450-dependent mixed function oxidase catalyzed deethylation of ethoxycoumarin by the procedure of […] and Poland, J. Pharmacol. Exp. Ther., 205, 596-605 (1978).

[5] = Ehrreich et al., 1976; cited from earlier work

IC50 [3] [µM] | IC50 [4] [µM] | Compound | DBH inhibition (in words, literature) (DBH) | also measured
 |  | NNCc1ccccc1 [benzylhydrazine] | apparently act as competitive inhibitors | 
 |  | CCCCc1ccc(C(=O)O)nc1 [Fusaric acid] |  | hepatotoxicity [1]: hepatotoxic
 |  | CN(C)C(=S)SCc1ccc(C(=O)O)nc1 [5-(dimethyldithiocarbamoylmethyl)picolinic acid] | DBH inhibitors | 
 |  | NOCc1ccccc1 [Benzyloxyamine, benzyloxyamine] | apparently act as competitive inhibitors | 
60 | 375 | CN1CCN(Cc2nnc(S)n2Cc2cccc(F)c2)CC1 [Example 2, 3-Mercapto-4-(3-fluorobenzyl)-5-[(4-methyl-1-piperazinyl)methyl]-1,2,4-triazole] |  | time to significant blood pressure reduction following treatment [2]: ≤ 30 min; blood pressure reduction (in words) [2]: significant blood pressure reductions; maximal blood pressure reduction [2]: ~40 mmHg
 |  | O=C(O)c1ccc(CCC(Br)CBr)cn1 (stereo not shown) [5-(3,4-dibromobutyl)picolinic acid] | DBH inhibitors | 
90 | 700 | CN1CCN(Cc2nnc(S)n2Cc2ccccc2)CC1 [3-mercapto-4-benzyl-5-[(4-methyl-1-piperazinyl)methyl]-1,2,4-triazole hydrochloride] |  | 
50 | 350 | CN1CCN(Cc2nnc(S)n2Cc2cc(F)cc(F)c2)CC1 [Example 3, 3-Mercapto-4-(3,5-difluorobenzyl)-5-[(4-methyl-1-piperazinyl)methyl]-1,2,4-triazole] |  | 
1.2 | 12 | Fc1cc(F)cc(Cn2ccnc2S)c1 [1-(3,5-difluorobenzyl)-2-mercapto imidazole, reference compound] |  | 
 |  | CCCCc1ccc(C(N)=O)nc1 [Bupicomide, 5-(n-butyl)picolinamine] | DBH inhibitor | antihypertensive activity [5]: has antihypertensive activity
 |  | CN1CCN(Cc2nnc(S)n2Cc2ccccc2)CC1 [Example 1, 3-Mercapto-4-benzyl-5-[(4-methyl-1-piperazinyl)methyl]-1,2,4-triazole] |  | time to significant blood pressure reduction following treatment [2]: ≤ 30 min; blood pressure reduction (in words) [2]: significant blood pressure reductions; maximal blood pressure reduction [2]: approximately 25 mmHg
 |  | O=C(O)c1ccc(CCCCCl)cn1 [5-(4-chlorobutyl) picolinic acid] | inhibit DBH | 
